The test addresses T1, human LXRβ (Homo sapiens, UniProt P55055).
T1 construct: expressed in transfected cells; host or cells: HEK293 cells (ATCC CRL-1573), transient transfection with pFA-hLXRβ/GAL4 and pUAS
T1 sequence (P55055 222-460 limits assumed): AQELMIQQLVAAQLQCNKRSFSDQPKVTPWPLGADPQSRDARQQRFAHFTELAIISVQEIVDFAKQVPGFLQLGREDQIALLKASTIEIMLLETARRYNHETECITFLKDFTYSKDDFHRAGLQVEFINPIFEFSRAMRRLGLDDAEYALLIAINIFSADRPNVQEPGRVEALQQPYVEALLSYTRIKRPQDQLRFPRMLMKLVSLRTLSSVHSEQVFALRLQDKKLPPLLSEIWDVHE
Kind of test: Assay for Transcriptional Activity of LXRβ (GAL4-hLXRβ LBD luciferase reporter, transient transfection). It is filed as cell-based. As to conditions: HEK293 cells transfected with pFA-hLXRβ/GAL4 and pUAS, 24 hours; for Emax: fold value in comparison with the control (DMSO-treated group); for EC50: increase of transcriptional activity of LXRβ, average of three independent tests. The procedure, abridged: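 HEK293 cells transiently co-transfected with GAL4-hLXRβ LBD and 5×GAL4-UAS luciferase reporter, treated 24 h at 37 °C with compounds over 9 points (0.01–50 μM, half-log). Luminescence read after lysis; EC50 from four-parameter fit, mean of three independent tests, with a known LXR agonist as positive control.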
On the technique in general: Reporter assays use an easily measured gene product as a stand-in for the process of interest.

`CS(=O)(=O)c1c(F)cc(-c2ccc(C3CC(C(O)(C(F)(F)F)C(F)(F)F)=NN3c3ccc(F)cc3F)cc2)cc1F` (stereo not shown) [Example 388, 1-(2,4-difluoro-phenyl)-5-(3′,5′-difluoro-4′-methanesulfonyl-biphenyl-4-yl)-3-[di-(trifluoromethyl)-hydroxy-methyl]-4,5-dihydro-1H-pyrazole]: the Emax was found to be 25 fold and the EC50 (commonly the concentration at which the effect is half-maximal) turned out to be 60 nM.
Take `COc1cccc(-c2ccc(C3CC(C(O)(C(F)(F)F)C(F)(F)F)=NN3c3ccccc3Cl)cn2)c1` (stereo not shown) [Example 349, 1-(2-chloro-phenyl)-5-[6-(3-methoxy-phenyl)-pyridin-3-yl]-3-[di-(trifluoromethyl)-hydroxy-methyl]-4,5-dihydro-1H-pyrazole]: the Emax was determined as 60 fold and the EC50 stood at 772 nM.
On the same counts, the results for `CS(=O)(=O)N1CCN(c2ccnc(C3CC(C(F)(F)C(F)(F)F)=NN3c3ccc(F)cc3F)c2)CC1` (stereo not shown) [Example 183, 1-(2,4-difluoro-phenyl)-5-[4-(4-methanesulfonyl-piperazin-1-yl)-pyridin-2-yl]-3-pentafluoroethyl-4,5-dihydro-1H-pyrazole] are 79 fold and 3280 nM.
The compound `COc1ncc(-c2ccc(C3CC(C(O)(C(F)(F)F)C(F)(F)F)=NN3c3ccc(F)cc3F)cc2)cc1C=O` (stereo not shown) [Example 379, 1-(2,4-difluoro-phenyl)-5-[4-(5-formyl-6-methoxy-pyridin-3-yl)-phenyl)-3-[di-(trifluoromethyl)-hydroxy-methyl]-4,5-dihydro-1H-pyrazole] came in with an Emax of 35 fold and an EC50 of 745 nM.
On the same counts, the results for `CCS(=O)(=O)N1CC=C(c2ccc(C3CC(C(O)(C(F)(F)F)C(F)(F)F)=NN3c3ccccc3Cl)cc2)CC1` (stereo not shown) [Example 299, 1-(2-chloro-phenyl)-5-[4-(1-ethanesulfonyl-1,2,3,6-tetrahydropyridin-4-yl)-phenyl]-3-[di-(trifluoromethyl)-hydroxy-methyl]-4,5-dihydro-1H-pyrazole] are 83 fold and 316 nM.
In the case of `Fc1ccc(N2N=C(C(F)(F)C(F)(F)F)CC2c2ccc(F)c(-c3ccc(Cl)nc3)c2)c(F)c1` (stereo not shown) [Example 130, 1-(2,4-difluoro-phenyl)-5-[4-fluoro-3-(6-chloro-pyridin-3-yl)-phenyl]-3-pentafluoroethyl-4,5-dihydro-1H-pyrazole], the Emax turned out to be 34 fold and a half-maximal effect (EC50) was put at 10300 nM.
Compound `O=C(c1ccccc1)N1CC=C(c2cccc(C3CC(C(O)(C(F)(F)F)C(F)(F)F)=NN3c3ccccc3Cl)c2)CC1` (stereo not shown) [Example 235, 5-[3-(1-benzoyl-1,2,3,6-tetrahydropyridin-4-yl)-phenyl]-1-(2-chloro-phenyl)-3-[di-(trifluoromethyl)-hydroxy-methyl]-4,5-dihydro-1H-pyrazole] showed an Emax of 63 fold and a concentration for a half-maximal effect (EC50) of 31 nM.
On the same counts, the results for `OC(C1=NN(c2ccccc2Cl)C(c2ccc(-c3cc4ccccc4o3)cc2)C1)(C(F)(F)F)C(F)(F)F` (stereo not shown) [Example 262, 5-(4-benzofuran-2-yl-phenyl)-1-(2-chloro-phenyl)-3-[di-(trifluoromethyl)-hydroxy-methyl]-4,5-dihydro-1H-pyrazole] are 92 fold and 6860 nM.
In turn, `Cc1ncccc1-c1cccc(C2CC(C(F)(F)C(F)(F)F)=NN2c2ccc(F)cc2F)c1` (stereo not shown) [Example 71, 1-(2,4-difluoro-phenyl)-5-(3-(2-methyl-pyridin-3-yl)-phenyl)-3-pentafluoroethyl-4,5-dihydro-1H-pyrazole] had an Emax of 20 fold and an EC50 of 1230 nM.
For `N#Cc1ccc(-c2cccc(C3CC(C(F)(F)C(F)(F)F)=NN3c3ccc(F)cc3F)c2)cn1` (stereo not shown) [Example 78, 5-[3-(2-cyano-pyridin-5-yl)-phenyl]-1-(2,4-difluoro-phenyl)-3-pentafluoroethyl-4,5-dihydro-1H-pyrazole], in that order: 25 fold and 2500 nM.
For `N#Cc1ccc(-c2ccc(C3CC(C(O)(C(F)(F)F)C(F)(F)F)=NN3c3ccccc3Cl)cc2)cn1` (stereo not shown) [Example 267, 1-(2-chloro-phenyl)-5-[4-(6-cyano-pyridin-3-yl)-phenyl]-3-[di-(trifluoromethyl)-hydroxy-methyl]-4,5-dihydro-1H-pyrazole], in that order: 59 fold and 442 nM.
On the same counts, the results for `Cc1ccncc1-c1ccc(C2CC(C(O)(C(F)(F)F)C(F)(F)F)=NN2c2ccccc2Cl)cc1` (stereo not shown) [Example 271, 1-(2-chloro-phenyl)-5-[4-(4-methyl-pyridin-3-yl)-phenyl]-3-[di-(trifluoromethyl)-hydroxy-methyl]-4,5-dihydro-1H-pyrazole] are 45 fold and 547 nM.
`COc1ccc(-c2ccc(C3CC(C(O)(C(F)(F)F)C(F)(F)F)=NN3c3ccccc3Cl)c(F)c2)cn1` (stereo not shown) [Example 343, 1-(2-chloro-phenyl)-5-[2-fluoro-4-(6-methoxy-pyridin-3-yl)-phenyl]-3-[di-(trifluoromethyl)-hydroxy-methyl]-4,5-dihydro-1H-pyrazole] came in with an Emax of 81 fold and an EC50 of 617 nM.
On the same counts, the results for `CS(=O)(=O)c1cccc(-c2ccc(C3CC(C(O)(C(F)(F)F)C(F)(F)F)=NN3c3ccccc3Cl)cc2)n1` (stereo not shown) [Example 286, 1-(2-chloro-phenyl)-5-{4-[6-(methylsulfonyl)-pyridin-2-yl]-phenyl}-3-[di-(trifluoromethyl)-hydroxy-methyl]-4,5-dihydro-1H-pyrazole] are 36 fold and 632 nM.
On the same counts, the results for `CC(C)CS(=O)(=O)N1CC=C(c2ccc(C3CC(C(O)(C(F)(F)F)C(F)(F)F)=NN3c3ccccc3Cl)cc2)CC1` (stereo not shown) [Example 302, 1-(2-chloro-phenyl)-5-{4-[1-(2-methyl-propane-1-sulfonyl)-1,2,3,6-tetrahydropyridin-4-yl]-phenyl}-3-[di-(trifluoromethyl)-hydroxy-methyl]-4,5-dihydro-1H-pyrazole] are 45 fold and 849 nM.
The compound `Cc1cc(-n2cnnn2)ncc1-c1ccc(C2CC(C(O)(C(F)(F)F)C(F)(F)F)=NN2c2ccc(F)cc2F)cc1` (stereo not shown) [Example 394, 1-(2,4-difluoro-phenyl)-5-{4-[4-methyl-6-(tetrazol-1-yl)-pyridin-3-yl]-phenyl}-3-[di-(trifluoromethyl)-hydroxy-methyl]-4,5-dihydro-1H-pyrazole] registered an Emax of 50 fold and an EC50 of 83 nM.
For `CCOc1cccc(-c2ccc(C3CC(C(O)(C(F)(F)F)C(F)(F)F)=NN3c3ccccc3F)cc2)c1` (stereo not shown) [Example 336, 5-(3′-ethoxy-biphenyl-4-yl)-1-(2-fluoro-phenyl)-3-[di-(trifluoromethyl)-hydroxy-methyl]-4,5-dihydro-1H-pyrazole], in that order: 72 fold and 1470 nM.
For `CCOc1ccc(-c2ccc(C3CC(C(O)(C(F)(F)F)C(F)(F)F)=NN3c3ccccc3Cl)cc2)cn1` (stereo not shown) [Example 269, 1-(2-chloro-phenyl)-5-[4-(6-ethoxy-pyridin-3-yl)-phenyl]-3-[di-(trifluoromethyl)-hydroxy-methyl]-4,5-dihydro-1H-pyrazole], in that order: 44 fold and 7930 nM.
On the same counts, the results for `Fc1ccc(N2N=C(C(F)(F)C(F)(F)F)CC2c2cccc(-c3ccc(C(F)(F)F)nc3)c2)c(F)c1` (stereo not shown) [Example 72, 1-(2,4-difluoro-phenyl)-3-pentafluoroethyl-5-(3-(2-trifluoromethyl-pyridin-5-yl)-phenyl)-4,5-dihydro-1H-pyrazole] are 9 fold and 15200 nM.
Compound `COc1ccc(-c2ccc(C3CC(C(O)(C(F)(F)F)C(F)(F)F)=NN3c3ccccc3Cl)cc2)c(Cl)c1` (stereo not shown) [Example 255, 5-(2′-chloro-4′-methoxy-biphenyl-4-yl)-1-(2-chloro-phenyl)-3-[di-(trifluoromethyl)-hydroxy-methyl]-4,5-dihydro-1H-pyrazole] returned an Emax of 58 fold and an EC50 of 1080 nM.
The compound `CN(C)S(=O)(=O)c1cccc(-c2cccc(N3N=C(C(F)(F)C(F)(F)F)CC3c3ccc(F)cc3F)c2)n1` (stereo not shown) [Example 209, 5-(2,4-difluoro-phenyl)-1-[3-(6-dimethylsulfamoyl-pyridin-2-yl)-phenyl]-3-pentafluoroethyl-4,5-dihydro-1H-pyrazole] gave an Emax of 20 fold and an EC50 of 5110 nM.
On the same counts, the results for `CS(=O)(=O)c1cc(F)c(-c2cccc(C3CC(C(F)(F)C(F)(F)F)=NN3c3ccc(F)cc3F)c2)cc1F` (stereo not shown) [Example 68, 5-(2′,5′-difluoro-4′-methanesulfonyl-biphenyl-3-yl)-1-(2,4-difluoro-phenyl)-3-pentafluoroethyl-4,5-dihydro-1H-pyrazole] are 75 fold and 192 nM.
On the same counts, the results for `O=S1(=O)CCN(c2ccc(C3CC(C(O)(C(F)(F)F)C(F)(F)F)=NN3c3ccccc3Cl)cc2)CC1` (stereo not shown) [Example 329, 1-(2-chloro-phenyl)-5-[4-(1,1-dioxo-thiomorpholin-4-yl)-phenyl]-3-[di-(trifluoromethyl)-hydroxy-methyl]-4,5-dihydro-1H-pyrazole] are 39 fold and 2030 nM.

The values above are taken from patent US9376420B2 (YUHAN CORPORATION, priority 2012, dated 2016).
